Results reported in article PMC11626952, “Preclinical evaluation of radiolabeled tissue factor-targeted peptide for theranostics of hepatocellular carcinoma post percutaneous ethanol injection” (Theranostics, 2024).
Where a SMILES comes first, the peptide text is derived from it. Side-chain parts run from the residue outwards. The star is where a group is joined. NOTA = O=C(O)CN1CCN(CC(=O)O)CCN(CC(=O)*)CC1; PEG8 = NCCOCCOCCOCCOCCOCCOCCOCCOCCC(=O)O

Legend:
[1] = assay type: physicochemical
Excerpt: (§1) instant thin layer chromatography. The stability of Al18F-NOTA-tTF in PBS (C) and FBS (D) via
(§2) instant thin layer chromatography. The stability of 68Ga-DOTA-tTF in PBS (E) and FBS (F) via
(§3) instant thin layer chromatography.
(§4) FBS: fetal bovine serum; PBS: phosphate-buffered saline.

[2] = assay type: in vitro ADME, bovine
Excerpt: as §1, §2, §3, §4

[3] = set-up: species or system Kunming mice; settings: mouse, in vivo
Description: increased to 95 °C, and maintained for 15 min. The crude product was purified using a C18 Sep-Pak cartridge and sterilized for subsequent applications. Radiolabeling efficiency was assessed using radio-thin-layer chromatography with citrate solvent (0.1 M, pH 4.0) as the mobile phase.
Small animal biodistribution and pharmacokinetics study of Al18F-NOTA-tTF A small animal biodistribution experiment was conducted with female Kunming mice (5 weeks). The mice were divided into six groups with 3-4 mice in each group. Al18F-NOTA-tTF (1.2 MBq) was injected into KM mice via the tail vein and a 1% injected dose of Al18F-NOTA-tTF was prepared for reference. At 5 min,15 min, 30 min, 60 min, 90 min and 120 min post-injection, the KM mice were euthanized and organs of interest were collected, wet-weighed. The uptake in various organs and tissues was determined and expressed in terms of the percentage injected dose per gram (%ID/g, mean ± SD) after quantifying the radioactivity of the samples using an […]
For the pharmacokinetic study, each Kunming mouse was intravenously injected with a 3.7 MBq of Al18F-NOTA-tTF. Small amounts of blood were obtained through the orbital vein of the […]
weighed and measured for radioactivity by the γ-counter. The results are expressed as the percentage injected dose per gram (%ID/g).
(§5) Al18F-NOTA-tTF PET/CT imaging in mice bearing Hepa1-6 xenografts
(§6) Al18F-NOTA-tTF PET/CT imaging of Hepa1-6 tumor-bearing mice were intravenously injected with 100 μL of Al18F-NOTA-tTF (2.96 MBq). In the blocking experiments, unlabeled excess precursors (0.2 mg) were co-injected with Al18F-NOTA-tTF into Hepa1-6 mice (n = 3).
One hour after Al18F-NOTA-tTF injection, the mice were anesthetized and placed in the prone

tissue factor (TF) [4] = target: T1, tissue factor (TF) (Mus musculus, UniProt P20352); test: Al18F-NOTA-tTF PET/CT imaging in Hepa1-6 tumor-bearing mice; assay type: in vivo; settings: for tumor uptake SUVmax, PEI group: n = 8
T1 construct: Hepa1-6 tumor-bearing mice received an intravenous injection of 100 μL of Al^18F-NOTA-tTF (2.96 MBq); from tissue; host or cells: subcutaneous Hepa1-6 tumours in male C57BL/6 mice
T1 sequence (P20352 29-294): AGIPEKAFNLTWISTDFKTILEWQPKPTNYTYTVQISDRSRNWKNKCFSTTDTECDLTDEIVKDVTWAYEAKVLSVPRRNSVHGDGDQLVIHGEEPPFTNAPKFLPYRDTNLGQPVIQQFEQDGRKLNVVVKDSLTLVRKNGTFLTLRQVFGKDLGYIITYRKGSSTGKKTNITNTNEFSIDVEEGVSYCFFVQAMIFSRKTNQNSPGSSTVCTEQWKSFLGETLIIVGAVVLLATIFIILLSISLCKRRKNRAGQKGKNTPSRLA
Description: […] Al^18F-NOTA-tTF PET/CT imaging was conducted on days 1 and 6 post-PEI. Hepa1-6 tumor-bearing mice received an intravenous injection of 100 μL of Al^18F-NOTA-tTF (2.96 MBq). Tumor volume and mouse body weight were monitored every 2 to 3 days. Biodistribution studies were performed on days 1 and 6 post-PEI, with mice divided into PEI and NC groups. Al^18F-NOTA-tTF (1.2 MBq) was administered via tail vein injection, and biodistribution results were expressed as the percentage of injected dose per gram (%ID/g).
Tumor-bearing mice were randomly divided into the HD-PEI treatment (HD-PEI, n = 8), LD-PEI treatment (LD-PEI, n = 8), and negative control (NC, n = 8) groups. Al^18F-NOTA-tTF PET/CT imaging was conducted on days 1, 5, and 12 post-PEI.^ 18F-FDG PET/CT imaging was conducted on days 2, 6, and 13 post-PEI. Hepa1-6 tumor-bearing mice received intravenous injections of 100 μL of Al^18F-NOTA-tTF (2.96 MBq) and^ 18F-FDG (2.96 MBq). Tumor volume and mouse body weight were monitored every 2 days. […]
increased to 95 °C, and maintained for 15 min. The crude product was purified using a C18 Sep-Pak cartridge and sterilized for subsequent applications. Radiolabeling efficiency was assessed using radio-thin-layer chromatography with citrate solvent (0.1 M, pH 4.0) as the mobile phase. […]
as §5, §6
One hour after Al18F-NOTA-tTF injection, the mice were anesthetized and placed in the prone […]
position on the scanning bed. The PET/CT imaging was acquired with a PET/CT scanner (uBio-EXPLORER, United Imaging, China). PET images were collected for 10 min and reconstructed to get more high-resolution images using an ordered subsets expectation maximization (OSEM) algorithm (4 OSEM iterations, resolution: 1.4 mmHD) with scatter, attenuation, and decay corrections applied. Regions of interest (ROIs) were drawn on the CT images and further mapped on PET. The SUVmax of the tumor and muscle were calculated and referred to as the tumor-to- […]
PEI treatment and efficacy monitoring
In this study, we established a model of incomplete ablation of hepatocellular carcinoma using percutaneous ethanol injection (PEI). Once the tumor volume reached approximately 100 mm3, all mice were randomly assigned to treatment, sham treatment, and negative control groups.
During the PEI procedure, an insulin needle was inserted along the long diameter of the tumor, with needle depth set at1/2 to 2/3 of the tumor diameter. Ethanol was injected at a rate of 25 μL every half minute, and the needle was slowly withdrawn after 5 minutes of injection. Ethanol leakage from the tumor was assessed using CT scans immediately following PEI treatment, defined as day 0. Subsequently, 18F-FDG PET/CT imaging was performed on day 1 post-PEI to evaluate therapeutic efficacy. Tumor volume and mouse body weight were monitored every 2 to 3 days. Tumor volume was calculated using the formula volume = (length × width^2)/2.
Radioligand therapy study
Mice were randomly assigned to five groups: PEI (group 1, n = 10), PEI + 0.45 mCi 177Lu-DOTA-tTF (group 2, n = 10), PEI + 0.75 mCi 177Lu-DOTA-tTF (group 3, n = 8), 0.45 mCi 177Lu-DOTA-tTF (group 4, n = 10), and saline (group 5, n = 10). During radiotherapy, one mouse died in […]

in vivo = test: in vivo; set-up: species or system mice; settings: mouse, iv, 1.2 MBq, total radioactivity, tumor uptake (biodistribution), PEI group
Description: (§7) We randomly divided tumor-bearing mice into the HD-PEI treatment (HD-PEI, n = 8), sham treatment (Sham, n = 8), and negative control groups (NC, n = 6). Al^18F-NOTA-tTF PET/CT imaging was conducted on days 1 and 6 post-PEI. Hepa1-6 tumor-bearing mice received an intravenous injection of 100 μL of Al^18F-NOTA-tTF (2.96 MBq). Tumor volume and mouse body weight were monitored every 2 to 3 days. Biodistribution studies were performed on days 1 and 6 post-PEI, with mice divided into PEI and NC groups. Al^18F-NOTA-tTF (1.2 MBq) was administered via tail vein injection, and biodistribution results were expressed as the percentage of injected dose per gram (%ID/g).

tissue factor (TF) [5] = target: T1, tissue factor (TF); test: in vivo; set-up: species or system mice; settings: iv, 1.2 MBq, 1 h
Description: as §7

[6] = HD/LD-PEI models, day 1 post-PEI
[7] = HD/LD-PEI models, day 5 post-PEI
[8] = HD/LD-PEI models, day 12 post-PEI
[9] = day 1 post-PEI, 60 min post-injection, n = 6

CC(C)C[C@H](NC(=O)[C@@H](NC(=O)[C@@H](N)CCCNC(=N)N)[C@@H](C)O)C(=O)N[C@@H](C)C(=O)N[C@@H](Cc1ccccc1)C(=O)N[C@H](C(=O)N[C@@H](CCCNC(=N)N)C(=O)N[C@@H](Cc1ccccc1)C(=O)N[C@@H](CCCCNC(=O)CCOCCOCCOCCOCCOCCOCCOCCOCCNC(=O)CN1CCN(CC(=O)O)CCN(CC(=O)O)CC1)C(=O)O)C(C)C [Al^18F-NOTA-tTF] (H-RTLAFVRFK([PEG8-NOTA])-OH)
Vitro stability in PBS [1]: > 95% (3 h)
Vitro stability in FBS [2]: > 95% (3 h)
in vitro stability in saline or fetal bovine serum [2]: remained stable
renal clearance [3]: rapid renal clearance
distribution phase half-life (Half-life Fast) ([3]; iv): 1.192 min
elimination phase half-life (Half-life Slow) ([3]; iv): 12.29 min
tumor uptake SUVmax, NC group (tissue factor (TF) [4]; HD/LD-PEI models, day 1): 0.12 ± 0.04
tumor uptake SUVmax, HD-PEI group (tissue factor (TF) [4]; [6]): 0.42 ± 0.17
tumor uptake SUVmax, LD-PEI group (tissue factor (TF) [4]; [6]): 0.54 ± 0.23
tumor uptake SUVmax, NC group (tissue factor (TF) [4]; HD/LD-PEI models, day 5): 0.16 ± 0.06
tumor uptake SUVmax, HD-PEI group (tissue factor (TF) [4]; [7]): 0.33 ± 0.09
tumor uptake SUVmax, LD-PEI group (tissue factor (TF) [4]; [7]): 0.30 ± 0.09
tumor SUVmax, HD-PEI group (tissue factor (TF) [4]; [8]): 0.25 ± 0.10
tumor SUVmax, LD-PEI group (tissue factor (TF) [4]; [8]): 0.31 ± 0.08
tumor uptake SUVmax, blocked (tissue factor (TF) [4]; Hepa1-6 tumor-bearing mice, 0.2 mg unlabeled precursor, 60 min post-injection, n = 3): 0.07 ± 0.010
tumor uptake SUVmax, non-blocked (tissue factor (TF) [4]; Hepa1-6 tumor-bearing mice, 60 min post-injection, n = 3): 0.13 ± 0.005
tumor uptake SUVmax, NC group (tissue factor (TF) [4]; [9]): 0.12 ± 0.03
tumor uptake SUVmax, Sham group (tissue factor (TF) [4]; [9]): 0.15 ± 0.04
tumor uptake SUVmax, PEI group (tissue factor (TF) [4]; day 1 post-PEI, 60 min post-injection): 0.62 ± 0.14
tumor uptake SUVmax, NC group (tissue factor (TF) [4]; day 6 post-PEI, n = 6): 0.11 ± 0.03
tumor uptake SUVmax, Sham group (tissue factor (TF) [4]; day 6 post-PEI, n = 6): 0.11 ± 0.01
tumor uptake SUVmax, PEI group (tissue factor (TF) [4]; day 6 post-PEI): 0.46 ± 0.23
tissue uptake at 1 h (in vivo): 0.77 ± 0.25 %ID/g
tumor uptake (biodistribution), PEI group (tissue factor (TF) [5]): 0.50 ± 0.28 %ID/g
